Results on 8 molecules are retold here after US10512700B2, “Radiohalide-labeled targeted diagnostics and therapeutics” (Memorial Sloan Kettering Cancer Center, priority 2014, dated 2019).

In data set [1] the target is T1, PARP1 (Homo sapiens, UniProt P09874).
T1 construct: purchased Trevigen
Kind of data set: IC50 determination, Universal PARP Colorimetric Assay Kit. In kind it is biochemical. As to conditions: Table 2, measured against PARP1. How it is done:
Inhibition of PARP1 was measured using the Universal PARP Colorimetric Assay Kit (Trevigen®, Gaithersburg, Md.). IC50 values were calculated using Prism 6.0c software (GraphPad, La Jolla, Calif.).
All experiments were carried out in triplicate.

Data set [2] can be described thus: Chromatographic Hydrophobicity Index (CHI) and log PCHI determination. In kind it is physicochemical. As to conditions: for chromatographic logP: reverse phase HPLC, read-out: logPCHI. How it is done:
Chromatographic Hydrophobicity Index (CHI) was determined according to the procedures reported in K. Valko et al, “Chromatographic Hydrophobicity Index by Fast-Gradient RP-HPLC: A High-Throughput Alternative to log P/log D”, Anal. Chem. 1997, 69:2022-29, incorporated by reference herein in its entirety. Briefly, a series of standards with known CHIs were analyzed with reverse phase HPLC. Retention times of the standards along with their known CHIs were plotted with Prism 6.0c software (GraphPad, La Jolla, Calif.). A line was fit to the data to create a calibration curve, which was then used to calculate the CHI of the test chemical entity based on the HPLC retention time.
The log PCHI value was determined according to K. Valko, 1997.

Data set [3] is described as follows: Plasma protein binding, Rapid Equilibrium Dialysis. The arrangement: fraction unbound at 4 h: dose or concentration left out as unconfirmed. It counts as in vitro ADME, mouse. As to conditions: 4 h at 37° C.; for % plasma free fraction: 10 μM in mouse serum; for Plasma protein binding: 500 μM in mouse serum. On the procedure:
The plasma protein fraction was determined using the Rapid Equilibrium Dialysis Device System (LifeTechnologies, Grand Island, N.Y.) according to the manufacturer's protocol.
For each of the iodinated compounds, membrane dialysis was performed with 10 μM of the compound in mouse serum (500 μL) on one side of the membrane and PBS (750 μL) on the other side. The system was sealed with parafilm and incubated for 4 h at 37° C. on an orbital shaker set to 250 rpm. Thereafter, 400 μL of solution was taken from both sides, and samples were treated twice with an equal amount of AcN and vortexed to remove protein before HPLC analysis. After injection (100 μL), the compound peaks from each sample were then integrated, and the protein bound fraction was determined as % bound=[1−(Concentration buffer chamber/Concentration plasma chamber)]×100. The data was analyzed using Prism 6.0c (GraphPad Software, La Jolla, Calif.).
The system was sealed with parafilm and incubated for 4 h at 37° C. on an orbital shaker set to 100 rpm. Thereafter, 50 μL of solution was taken from both sides, and samples were treated with 300 μL of precipitation buffer (90/10 acetonitrile/water with 0.1% formic acid) and vortexed to remove protein before HPLC analysis. […] The data was analyzed using Prism 6.0c (GraphPad Software, La Jolla, Calif.).
Background: In equilibrium dialysis free small molecules cross a membrane that holds back macromolecules.

In data set [4] the test system is U373 MG cells. Kind of data set: In vitro blocking study, competitive inhibition of PARP1i-FL uptake. In kind it is cell-based, human. Conditions: 5 μM (10-fold excess) with PARP1i-FL 500 nM, 30 minutes. How it is done:
(§1) U251 MG or U373 MG (1×10^4 cells per well) cells were seeded into 12 wells each on a 96-well plate and cultured for 24 hours. […] Following incubation, cells were washed twice with media and twice with PBS and imaged with a Zeiss LSM 5Live confocal microscope (images not shown). Fluorescence intensity was then quantified from the images using ImageJ 1.47 u processing software (see FIG. 3).

Data set [5] concerns U251 MG cells. The description is as above. It counts as cell-based, human. As to conditions: 5 μM (10-fold excess) with PARP1i-FL 500 nM, 30 minutes. How it is done:
as §1

For data set [6] the following is noted: reported for olaparib; cited from earlier work.

Where two headings read alike, the source gives them in different places.

T1 sequence (P09874 whole entry, species assumed): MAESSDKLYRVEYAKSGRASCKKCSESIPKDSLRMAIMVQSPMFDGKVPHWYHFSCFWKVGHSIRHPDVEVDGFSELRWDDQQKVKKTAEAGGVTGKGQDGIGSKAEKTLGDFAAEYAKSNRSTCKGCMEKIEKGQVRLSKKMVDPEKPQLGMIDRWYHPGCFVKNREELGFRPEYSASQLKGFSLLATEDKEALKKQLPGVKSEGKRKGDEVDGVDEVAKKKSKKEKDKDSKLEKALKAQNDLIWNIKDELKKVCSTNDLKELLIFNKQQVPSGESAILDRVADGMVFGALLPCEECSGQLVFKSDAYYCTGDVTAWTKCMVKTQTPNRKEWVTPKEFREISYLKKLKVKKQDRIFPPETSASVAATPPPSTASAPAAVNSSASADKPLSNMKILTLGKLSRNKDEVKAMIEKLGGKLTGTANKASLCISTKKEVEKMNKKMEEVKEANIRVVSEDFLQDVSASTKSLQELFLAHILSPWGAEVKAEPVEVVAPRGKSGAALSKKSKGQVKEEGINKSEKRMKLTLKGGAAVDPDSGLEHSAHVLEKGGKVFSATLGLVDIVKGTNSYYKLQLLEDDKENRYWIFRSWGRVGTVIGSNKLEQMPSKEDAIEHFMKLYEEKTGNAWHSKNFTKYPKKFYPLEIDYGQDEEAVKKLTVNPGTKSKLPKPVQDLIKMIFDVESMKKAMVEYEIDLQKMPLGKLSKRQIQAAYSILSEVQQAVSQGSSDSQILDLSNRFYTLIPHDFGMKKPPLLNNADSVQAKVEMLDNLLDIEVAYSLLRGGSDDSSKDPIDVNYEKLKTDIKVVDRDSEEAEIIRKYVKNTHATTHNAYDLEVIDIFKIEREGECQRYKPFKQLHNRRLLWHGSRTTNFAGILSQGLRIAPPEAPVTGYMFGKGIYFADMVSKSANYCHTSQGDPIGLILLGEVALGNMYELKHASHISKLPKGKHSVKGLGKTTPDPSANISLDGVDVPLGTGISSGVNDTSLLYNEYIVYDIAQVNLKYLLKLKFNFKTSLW

Turning to `O=C(Cc1cccc(I)c1)N1CCN(C(=O)c2cc(Cc3n[nH]c(=O)c4ccccc34)ccc2F)CC1` [c-3 (^127I), 4-(4-fluoro-3-(4-(2-(3-iodophenyl)acetyl)piperazine-1-carbonyl)-benzyl)phthalazin-1(2H)-one], it took 34 ± 3 nM to reach half-maximal inhibition in data set [1] (IC50). In data set [2] (Table 2), the CHI is listed as 66.7 and the chromatographic logP is 2.7. The “% plasma free fraction” value in data set [3] is on record as 7.0 ± 0.1%.

With `O=C(CCc1cccc(I)c1)N1CCN(C(=O)c2cc(Cc3n[nH]c(=O)c4ccccc34)ccc2F)CC1` [c-5 (^127I), 4-(4-fluoro-3-(4-(3-(3-iodophenyl)propanoyl)piperazine-1-carbonyl)benzyl)phthalazin-1(2H)-one], the IC50 – broadly, the concentration at which inhibition is half-maximal – in data set [1] was determined as 107 ± 4 nM. Besides, in data set [2] (Table 2), the CHI was determined as 71.6 and the chromatographic logP stood at 3. In data set [3], the “% plasma free fraction” value stood at 7.8 ± 1.4%.

With `O=C(c1cc(Cc2n[nH]c(=O)c3ccccc23)ccc1F)N1CCN(C(=O)C2CC2)CC1` [olaparib, 4-[3-(4-cyclopropanecarbonylpiperazine-1-carbonyl)-4-fluorobenzyl]-2H-phthalazin-1-one, reference compound], the “reduction of fluorescence intensity in the nucleus” value (from here on “reduction of fluorescence intensity”) in data set [4] was 71.2%±20.0%. Also, in data set [5], the “reduction of fluorescence intensity” value was 69.6%±22.3%. Besides, in data set [6], the CHI is 34.1 and the logPCHI is recorded as 0.8. Besides, in data set [3], the Plasma protein binding is reported as 65%.

Take `O=C(c1ccc(I)cc1)N1CCN(C(=O)c2cc(Cc3n[nH]c(=O)c4ccccc34)ccc2F)CC1` [c-2 (^127I), 4-(4-fluoro-3-(4-(4-iodobenzoyl)piperazine-1-carbonyl)benzyl)-phthalazin-1(2H)-one]: the “% plasma free fraction” value in data set [3] is listed as 11.5 ± 0.1%.

Consider `O=C(c1ccc(F)cc1)N1CCN(C(=O)c2cc(Cc3n[nH]c(=O)c4ccccc34)ccc2F)CC1` [c-2 (^19F)], for which the “reduction of fluorescence intensity” value in data set [4] is recorded as 78.8%±10.4%. For the same molecule, the “reduction of fluorescence intensity” value in data set [5] was 80.0%±10.8%. In addition, in data set [2] (Table 3), the CHI is 57.5, the logPCHI amounted to 2.15±0.41 and the chromatographic logP worked out at 2.15 ± 0.41. The molecule also displayed a Plasma protein binding in data set [3] of 63.9 ± 12.6%. For the same molecule, the fraction unbound (in general, free concentration divided by total concentration) at 4 h in data set [3] (mouse, mouse serum) was 0.36.

As to `O=C(Cc1ccc(I)cc1)N1CCN(C(=O)c2cc(Cc3n[nH]c(=O)c4ccccc34)ccc2F)CC1` [c-4 (^127I), 4-(4-fluoro-3-(4-(2-(4-iodophenyl)acetyl)piperazine-1-carbonyl)-benzyl)phthalazin-1(2H)-one], the midpoint of inhibition in data set [1], the IC50, lay at 74 ± 5 nM. In data set [2] (Table 2), the CHI stood at 66.7 and the chromatographic logP came to 2.7. The “% plasma free fraction” value in data set [3] worked out at 5.0 ± 0.3%.

As for `O=C(c1cccc(I)c1)N1CCN(C(=O)c2cc(Cc3n[nH]c(=O)c4ccccc34)ccc2F)CC1` [c-1 (^127I), 4-(4-fluoro-3-(4-(3-iodobenzoyl)piperazine-1-carbonyl)benzyl)-phthalazin-1(2H)-one], the “% plasma free fraction” value in data set [3] is given as 9.6 ± 1.5%.

Take `O=C(CCc1ccc(I)cc1)N1CCN(C(=O)c2cc(Cc3n[nH]c(=O)c4ccccc34)ccc2F)CC1` [c-6 (^127I), 4-(4-fluoro-3-(4-(3-(4-iodophenyl)propanoyl)piperazine-1-carbonyl)benzyl) phthalazin-1(2H)-one]: in data set [1], the 50% inhibitory concentration (IC50) was found to be 47 ± 5 nM. In addition, in data set [2] (Table 2), the CHI came to 71.6 and the chromatographic logP was 3. Besides, the “% plasma free fraction” value in data set [3] was determined as 4.7 ± 0.5%.
